Results from article PMC13308190, “Endothelial progenitor cell susceptibility to DNA damaging and DDR-modulating compounds determines endothelial differentiation accuracy” (Stem Cell Research & Therapy, 2026).

Tests used:
Type in all cases: cell-based, mouse
EC d6 [1] = experiment: ZO1 tight junction immunofluorescence; conditions: analysed 2 days later
EC d6 [2] = experiment: Mitochondrial membrane potential (TMRM-MitoTracker Green); conditions: EC d6 treated 24 h
Method: Mitochondrial membrane potential (ΔΨm) was analyzed by live-cell imaging using TMRM-MitoTracker Green co-staining. Cells were seeded and differentiated on Poly-D-Lysine-fibronectine-coated live-imaging dishes. For staining, cells were incubated with 200nM MitoTracker Green (Invitrogen) and 50 nM TMRM (Invitrogen) in DMEM (30 min, 37 °C, 5% CO2). After washing with PBS, live-cell microscopy was performed using a spinning disc confocal microscope (PerkinElmer) equipped with a 60x oil-immersion objective (N.A = 1.49) and a Hamamatsu C9100 camera (1000 × 1000 pixel) (excitation (MitoTracker Green): 488 nm, excitation (TMRM): 561 nm). The cells were kept at 37 °C in OptiMEM supplemented with 10 mM HEPES during imaging. The images were obtained at emission wavelength of 527 nm (W55) and 615 nm (W70) for 488 nm and 561 nm excitation, respectively.

EC d4 [3] = experiment: VE-cadherin cell-cell junction immunostaining; conditions: EC d4 treated 48 h
[4] = system: EC d4 (endothelial progenitor cells); experiment: RT-qPCR mRNA expression; conditions: for Ccl2 mRNA / Icam-1 mRNA / Vcam-1 mRNA / eNos mRNA / iNos mRNA: Fig 8D; for Cdkn1a mRNA / Cdkn2a mRNA / Glb1 mRNA / Il6 mRNA / Il8 mRNA / Tp53 mRNA: Fig 7B
Method: Total RNA was purified using the RNeasy Mini Kit (Qiagen, Hilden, Germany). Reverse transcriptase (RT) reaction was performed with the HighCapacity cDNA Reverse Transcription Kit (Applied Biosystems, Darmstadt, Germany) using 900–2000 ng of RNA. Quantitative RT-qPCR analysis was performed using following conditions: (1) 95 °C–10 min; (2) 45 amplification cycles with 95 °C–15 s, 55 °C–15 s, and 72 °C–17 s; (3) 95 °C–1 min, 55 °C–1 min, 65 °C–5 s. If not stated otherwise, analyses were performed in technical triplicates using pooled samples from two independent experiments (each performed with biological duplicates) by use of a CFX96 cycler (BioRad) and the SensiMix SYBR Kit (Bioline, London, UK). The primers used for mRNA expression analyses are listed in Supplementary Table 1. To ensure the specificity of the amplification product, melting curves were recorded at the end of the run. mRNA expression levels were normalized to β-Actin and Gapdh. Relative mRNA expression in mESC or corresponding untreated controls was set to 1.0. Only changes in gene expression of ≤ 0.5- and ≥ 2-fold were considered as biologically relevant.
To monitor prototypical functions of endothelial cells, the uptake of fluorescent 1,1-dioctadecyl-3,3,3,3-tetra-methylindocarbocyanine-labeled acetylated LDL (Dil-acLDL) was examined. Briefly, cells were incubated with Dil-acLDL (10 µg/ml, 4 h, 37 °C). After fixation (3.7% cold formaldehyde/PBS (15 min, RT) nuclei were counterstained with DAPI. The uptake of DiI-acLDL was analyzed by fluorescence microscopy (Olympus BX43, 20x objective). Additionally, the response of differentiated EC to inflammatory cytokines was measured. After treatment with a pro-inflammatory cytokine mixture (TNFα/IL-1β, 10 ng/mL) for 1 h, mRNA expression of activated EC markers E-selectin, Icam-1, Vcam-1, Ccl2, eNos, iNos was analyzed (RT-qPCR).

EC d4 [5] = experiment: Nuclear γH2AX / 53BP1 foci (DSB); conditions: EC d4 48 h, equitoxic concentrations
Method: (§1) DNA double-strand breaks were monitored by immunocytochemical detection of nuclear γH2AX and 53BP1 foci. Cells were fixed with 3.7% formaldehyde/PBS (15 min, RT) and permeabilized (0.3% TritonX/PBS; 15 min, RT). […] Cell suspension was mixed with 0.5% low melting point agarose and applied onto glass slides coated with 1.5% agarose. After lysis in alkaline buffer (pH 10, 1 h, 4 °C, protected from light) and DNA denaturation in precooled electrophoresis buffer (pH > 13, 25 min, 4 °C, protected from light) electrophoresis was performed (300 mA, 25 V, 4 °C, 25 min).

mESC = experiment: Nuclear γH2AX / 53BP1 foci (DSB); conditions: mESC 24 h, equitoxic concentrations
Method: as §1

[6] = EC d4 + 0.5 µM 48 h, analysed in EC d6
[7] = EC d4 + 0.5 µM 48 h, then + I/T (IL-1β/TNFα 10 ng/ml, 1 h)
[8] = EC d4 + 1 µM 48 h, analysed day 6, Fig 1C
[9] = EC d4 + 1 µM 48 h, analysed in EC d6
[10] = EC d4 + 1 µM 48 h, then + I/T (IL-1β/TNFα 10 ng/ml, 1 h)

## Nc1ccccc1NC(=O)c1ccc(CNC(=O)OCc2cccnc2)cc1 [EST, entinostat]
EC d6 [1]
  ZO1 assembly in treated EC d6: clearly visible gaps
EC d6 [2]
  mitochondrial membrane potential: remained largely unaffected
EC d4 [3]
  VE-cadherin cell-cell junctions in EC d6 differentiated from treated EC d4: did not trigger defects
[4]; [6]
  Ccl2 mRNA: 4.20 Fold of untreated control
  Icam-1 mRNA: 6.04 Fold of untreated control
  Vcam-1 mRNA: 0.80 Fold of untreated control
  eNos mRNA: 156.02 Fold of untreated control
  iNos mRNA: 4.21 Fold of untreated control
[4]; [7]
  Ccl2 mRNA: 454.50 Fold of untreated control
  Icam-1 mRNA: 26.69 Fold of untreated control
  Vcam-1 mRNA: 1.68 Fold of untreated control
  eNos mRNA: 165.80 Fold of untreated control
  iNos mRNA: 4.06 Fold of untreated control
[4]; EC d4 + 0.5 µM 48 h
  Cdkn1a mRNA: 1.59 Fold of untreated control
  Cdkn2a mRNA: 1.29 Fold of untreated control
  Glb1 mRNA: 1.41 Fold of untreated control
  Il6 mRNA: 0.99 Fold of untreated control
  Il8 mRNA: 0.80 Fold of untreated control
  Tp53 mRNA: 1.018 Fold of untreated control
[4]; [8]
  Flk1 mRNA: 19.60 Fold of mESC
  Nanog mRNA: 0.05 Fold of mESC
  Oct4 mRNA: 0.05 Fold of mESC
  Pecam1 mRNA: 1.30 Fold of mESC
  VE-cad mRNA: 858.76 Fold of mESC
[4]; [9]
  Ccl2 mRNA: 0.90 Fold of untreated control
  Icam-1 mRNA: 5.21 Fold of untreated control
  Vcam-1 mRNA: 0.49 Fold of untreated control
  eNos mRNA: 58.94 Fold of untreated control
[4]; [10]
  Ccl2 mRNA: 132.23 Fold of untreated control
  Icam-1 mRNA: 19.80 Fold of untreated control
  Vcam-1 mRNA: 1.55 Fold of untreated control
  eNos mRNA: 53.06 Fold of untreated control
  iNos mRNA: 1.30 Fold of untreated control
[4]; EC d4 + 1 µM 48 h, Fig 5C
  Brca1 mRNA: 0.32 Fold of mESC
  Chk1 mRNA: 0.51 Fold of mESC
  Rad51 mRNA: 0.26 Fold of mESC
[4]; EC d4 + 1 µM 48 h, Fig 6D
  Pgc1a mRNA: 0.21 Fold of untreated control
[4]; EC d4 + 1 µM 48 h
  Cdkn1a mRNA: 1.62 Fold of untreated control
  Cdkn2a mRNA: 1.49 Fold of untreated control
  Glb1 mRNA: 1.61 Fold of untreated control
  Il6 mRNA: 1.09 Fold of untreated control
  Il8 mRNA: 0.57 Fold of untreated control
  Tp53 mRNA: 0.99 Fold of untreated control
[4]; EC d4 + 1 µM 48 h, Fig 8C
  Cldn5 mRNA: 0.55 Fold of EC d4 or d6
  Ocln mRNA: 1.06 Fold of EC d4 or d6
  Tjp1 mRNA: 1.56 Fold of EC d4 or d6
[4]; EC d4 + 1 µM 48 h, Fig 8F
  Ldlr mRNA: 0.66 Fold of untreated control
EC d4 [5]
  DSB numbers (γH2AX / 53BP1 foci): clear increase
mESC
  nuclear γH2AX foci: significant increase
